Each structure is given as a SMILES string.

A short description of this experiment: Binding affinity to CDK4/D.
The molecule `CN1CCN(c2ccc(Nc3ncc4ccc(=O)n(C5CCCC5)c4n3)cc2)CC1` returned a log(10'6/IC50) of 5.05.

For `CCn1c(=O)ccc2cnc(Nc3ccc(N4CCOCC4)cc3)nc21`, the log(10'6/IC50) was 3.52. For the molecule `CCn1c(=O)ccc2cnc(Nc3cccc(OC(F)(F)C(F)F)c3)nc21`, the log(10'6/IC50) stood at 2.11.

As to `CCn1c(=O)ccc2cnc(NCc3ccccc3)nc21`, the log(10'6/IC50) was determined as 1.4.

With `O=c1ccc2cnc(Nc3ccccc3)nc2n1C1CCCCC1`, the log(10'6/IC50) turned out to be 4.33. With `CCCCn1c(=O)ccc2cnc(Nc3ccccc3)nc21`, the log(10'6/IC50) came to 2.83. The molecule `O=c1ccc2cnc(Nc3ccccc3)nc2n1-c1ccccc1` registered a log(10'6/IC50) of 2.78. The molecule `CCn1c(=O)ccc2cnc(Nc3ccc(OC)cc3)nc21` registered a log(10'6/IC50) of 3.22.

On to `CN1CCN(c2ccc(Nc3ncc4ccc(=O)n(C5CC5)c4n3)cc2)CC1`, for which the log(10'6/IC50) amounted to 3.85. On to `CC(C)n1c(=O)ccc2cnc(Nc3ccccc3)nc21`, for which the log(10'6/IC50) was found to be 3.84. Molecule `O=c1ccc2cnc(Nc3ccccc3)nc2n1CC1CO1` (centres undefined) came in with a log(10'6/IC50) of 2.3. For `CC(C)Cn1c(=O)ccc2cnc(Nc3ccccc3)nc21` the value was 3.53. Regarding `CC(C)CCn1c(=O)ccc2cnc(Nc3ccc(N4CCN(C)CC4)cc3)nc21`, the log(10'6/IC50) is 4.89. The molecule `CCn1c(=O)ccc2cnc(Nc3ccc(F)cc3)nc21` gave a log(10'6/IC50) of 2.91. `CCn1c(=O)ccc2cnc(Nc3ccncc3)nc21` came in with a log(10'6/IC50) of 2.93.

On to `CCN(CC)CCOc1ccc(Nc2ncc3ccc(=O)n([C@H]4C[C@H]5CC[C@H]4C5)c3n2)cc1` (relative stereo), for which the log(10'6/IC50) was determined as 3.35.

Take `CCC(C)n1c(=O)ccc2cnc(Nc3ccccc3)nc21` (centres undefined): the log(10'6/IC50) came to 3.72. As to `COCn1c(=O)ccc2cnc(Nc3ccccc3)nc21`, the log(10'6/IC50) amounted to 2.38.

For `CCOCCn1c(=O)ccc2cnc(Nc3ccccc3)nc21`, the log(10'6/IC50) came to 2.11. Molecule `CN1CCN(c2ccc(Nc3ncc4ccc(=O)n(-c5ccccc5)c4n3)cc2)CC1` displayed a log(10'6/IC50) of 3.76. On to `CCn1c(=O)ccc2cnc(Nc3cccc(F)c3)nc21`, for which the log(10'6/IC50) was found to be 2.85. As for `CCn1c(=O)ccc2cnc(N(C)c3ccccc3)nc21`, the log(10'6/IC50) worked out at 1.4. Molecule `CC(C)CCn1c(=O)ccc2cnc(Nc3ccccc3)nc21` registered a log(10'6/IC50) of 3.8.

`O=c1ccc2cnc(Nc3ccccc3)nc2n1Cc1ccccc1` came in with a log(10'6/IC50) of 3.03. Next, `CCn1c(=O)ccc2cnc(NC(C)C)nc21`: 2.36.

`CCNc1ncc2ccc(=O)n(CC)c2n1` showed a log(10'6/IC50) of 1.92.

`CC(C)n1c(=O)ccc2cnc(Nc3ccc(N4CCN(C)CC4)cc3)nc21` had a log(10'6/IC50) of 4.49.

In turn, `CCN(CC)CCOc1ccc(Nc2ncc3ccc(=O)n(C4CCCCCC4)c3n2)cc1` gave a log(10'6/IC50) of 5.4. Consider `CCN(CC)CCOc1ccc(Nc2ncc3ccc(=O)n(CC)c3n2)cc1`, for which the log(10'6/IC50) is 3.8.

In turn, `CCn1c(=O)ccc2cnc(Nc3ccc(O)cc3)nc21` registered a log(10'6/IC50) of 3.23. Next, `O=c1ccc2cnc(Nc3ccccc3)nc2n1C1CCCCCC1`: 3.74. Next, `CCn1c(=O)ccc2cnc(Nc3cccc(OC)c3)nc21`: 1.4; `O=c1ccc2cnc(Nc3ccccc3)nc2n1[C@H]1C[C@H]2CC[C@H]1C2` (relative stereo): 4.42. For `CCN(CC)CCOc1ccc(Nc2ncc3ccc(=O)n(C(C)C)c3n2)cc1` the value was 4.35. Take `CN1CCN(c2ccc(Nc3ncc4ccc(=O)n([C@H]5C[C@H]6CC[C@H]5C6)c4n3)cc2)CC1` (relative stereo): the log(10'6/IC50) turned out to be 5.22. Molecule `CCn1c(=O)ccc2cnc(Nc3ccc(N4CCN(C)CC4)cc3)nc21` displayed a log(10'6/IC50) of 4.07.

For the molecule `CCCn1c(=O)ccc2cnc(Nc3ccccc3)nc21`, the log(10'6/IC50) came out at 3.26. `CCN(CC)CCOc1ccc(Nc2ncc3ccc(=O)n(C4CCCCC4)c3n2)cc1`: the log(10'6/IC50) is 4.96. As to `CCN(CC)CCOc1ccc(Nc2ncc3ccc(=O)n(C4CCCC4)c3n2)cc1`, the log(10'6/IC50) was determined as 6.15. For `CCn1c(=O)ccc2cnc(Nc3ccc(O)c(OC)c3)nc21` the value was 2.74; for `CCn1c(=O)ccc2cnc(Nc3ccc(-n4cccc4)cc3)nc21`, 2.56. `CN1CCN(c2ccc(Nc3ncc4ccc(=O)n(CC(O)CO)c4n3)cc2)CC1` (centres undefined): the log(10'6/IC50) was 2.78. `CCn1c(=O)ccc2cnc(Nc3ccc(OC)c(OC)c3)nc21` yielded a log(10'6/IC50) of 2.39.

For `CCn1c(=O)ccc2cnc(Nc3ccccc3)nc21`, the log(10'6/IC50) was determined as 3.21. Molecule `O=c1ccc2cnc(Nc3ccccc3)nc2n1CC1CCCCC1` had a log(10'6/IC50) of 1.87. `O=c1ccc2cnc(Nc3ccccc3)nc2n1C1CCCC1` gave a log(10'6/IC50) of 3.68. `CCn1c(=O)ccc2cnc(Nc3ccc(OCCOC)cc3)nc21` displayed a log(10'6/IC50) of 2.63. Next, `CN1CCN(c2ccc(Nc3ncc4ccc(=O)n(CCOCc5ccccc5)c4n3)cc2)CC1`: 2.68; `CCn1c(=O)ccc2cnc(NC(C)(C)C)nc21`: 2.28. In turn, `CN1CCN(c2ccc(Nc3ncc4ccc(=O)n(C5CCCCC5)c4n3)cc2)CC1` came in with a log(10'6/IC50) of 5.4. For the molecule `COCCn1c(=O)ccc2cnc(Nc3ccccc3)nc21`, the log(10'6/IC50) is 2.54. The molecule `CCn1c(=O)ccc2cnc(NC3CCCCC3)nc21` yielded a log(10'6/IC50) of 2.48. In turn, `Cn1c(=O)ccc2cnc(Nc3ccccc3)nc21` returned a log(10'6/IC50) of 2.26. As for `COC(=O)Cn1c(=O)ccc2cnc(Nc3ccccc3)nc21`, the log(10'6/IC50) amounted to 1.51.

(Values after ChEMBL document CHEMBL1150366, “Structural requirements of pyrido[2,3-d]pyrimidin-7-one as CDK4/D inhibitors: 2D autocorrelation, CoMFA and CoMSIA analyses” (Bioorg Med Chem, 2008).)
